In patent US12329799B2, “Peptidyl inhibitors of calcineurin-NFAT interaction” (Ohio State Innovation Foundation, priority 2018, dated 2025):
Positions of bridges follow the written chain, without caps; N, C: chain ends. Non-standard residues stand in square brackets, D forms with d. Residues, ends and D or L forms follow the SMILES beside them. Chains are numbered I, II in the order given. *: point of attachment. Benzoyl(2,3-Cl2) = O=C(c1cccc(Cl)c1Cl)*; 2Nal = N[C@@H](Cc1ccc2ccccc2c1)C(=O)O; Tle = CC(C)(C)[C@H](N)C(=O)O; AEEA = NCCOCCOCC(=O)O

Legend:
[1] = target: T1, Calcineurin (GST-CN) (Homo sapiens, UniProt Q08209); assay: FA-based competition with FITC-labeled peptide 14 for binding to CN; settings: unlabeled; inhibition of binding of peptide 14 to CN
T1 construct: made in house; host or cells: E. coli BL21
Procedure: Serial dilutions of competitor peptides were prepared in PBS with 0.01% Trition-X100 and then added to the incubation solution and equilibrated at RT with gentle mixing for 1 h. Samples were pipetted into 384-well black microplates and FP signal was measured using a TECAN Infinite M1000 plate reader and analyzed using GraphPad PRISM v.6.

[2] = Serum stability assay; type: in vitro ADME; settings: 25% human serum, 37° C., 24 h, read-out: degradation in human serum
Procedure: Serum Stability Assay. Diluted human serum (25%) (H4522 human serum, Sigma) was centrifuged at 15,000 rpm for 10 min, and the supernatant was collected. A peptide stock solution was diluted into the supernatant to a final concentration of 5 μM and incubated at 37° C. At various time points (0-24 h), 200-μL aliquots were withdrawn and mixed with 100 μL of 15% trichloroacetic acid and incubated at 4° C. overnight. The final mixture was centrifuged at 15,000 rpm for 10 min in a microcentrifuge, and the supernatant was analyzed by reversed-phase HPLC equipped with a C18 column. The amount of remaining peptide (%) was determined by integrating the area underneath the peptide peak (monitored at 214 nm) and comparing with that from the peptide at time 0.

[3] = system: HeLa cells; assay: MTT assay, HeLa; type: cell-based; settings: MTT, 72 h
Procedure: (§1) MTT Proliferation Assay. HeLa, Jurkat-Lucia, or H441 cells were seeded into a 96-well microplate (5000 cells per well) in full growth media and incubated at 37° C. overnight. A serial dilution of each compound was prepared in DPBS and then added to each well. The treated cells were incubated at 37° C. with 5% CO2 for 72 h. Following compound treatment, 10 μL of MTT stock solution was added to each well. After an additional 4 h at 37° C., 100 μL of SDS-HCl solubilizing solution was added to each well and the plate was returned to the incubator overnight at 37° C. A Tecan Infinite M1000 Pro microplate reader was used the following morning to measure the absorbance of the formazan product at 565 nm.
Potential cytotoxicity of CNI101 (SEQ ID NO: 206) and CNI103 (SEQ ID NO: 208) was tested on HeLa cells by the MTT proliferation assay. HeLa cells were seeded into a 96-well microplate (5000 cells per well) in full growth media and incubated at 37° C. overnight. A serial dilution of each inhibitor was prepared in DPBS and then added to each well. The treated cells were incubated at 37° C. with 5% CO2 for 72 h. Following compound treatment, 10 μL of MTT stock solution was added to each well. After an additional 4 h at 37° C., 100 μL of SDS-HCl solubilizing solution was added to each well and the plate was returned to the incubator overnight at 37° C. A Tecan Infinite M1000 Pro microplate reader was used the following morning to measure the absorbance of the formazan product at 565 nm.

[4] = system: Jurkat cells; assay: MTT assay, Jurkat; type: cell-based
Procedure: as §1

[5] = system: NFAT-mediated luciferase expression in Jurkat cells; assay: NFAT luciferase assay in Jurkat cells; type: cell-based; settings: qualitative
Procedure: In a separate experiment, CNI93 was also tested against Jurkat cells expressing a luciferase gene under the transcriptional control of NFAT.
NFAT Luciferase Assay. Jurkat-Lucia cells maintained in RPMI-1640 supplemented with 10% FBS, 1% penicillin/streptomycin (v/v/v) and 100 μg/mL normocin were harvested after a passage with 50 μg/mL selective antibiotic Zeocin at 300×RCF for 5 min. Cells were resuspended in warm RPMI-1640 with antibiotics but without FBS to a final density of 2×10^6 cells/mL and seeded into white-on-white cell-culture treated 96-well plates. To each well was added 10 μL of DPBS containing compounds which dilute to the desired concentrations followed by 170 μL of cell suspension […] and incubated at 37° C. for 2 h. The cells were induced by treatment with 50 ng/mL PMA and 3 μg/mL ionomycin, Ca^2+ salt in FBS to achieve a final FBS concentration of 10% in each well (with FBS only as control). The plate was incubated for an additional 4 h at 37° C., when 20 μL of each sample was withdrawn and mixed with 50 μL of Quanti-Luc assay solution. The luminescence of the mixture was immediately measured on a Tecan Infinite M1000 plate reader.

T1 sequence (Q08209 2-347 limits assumed): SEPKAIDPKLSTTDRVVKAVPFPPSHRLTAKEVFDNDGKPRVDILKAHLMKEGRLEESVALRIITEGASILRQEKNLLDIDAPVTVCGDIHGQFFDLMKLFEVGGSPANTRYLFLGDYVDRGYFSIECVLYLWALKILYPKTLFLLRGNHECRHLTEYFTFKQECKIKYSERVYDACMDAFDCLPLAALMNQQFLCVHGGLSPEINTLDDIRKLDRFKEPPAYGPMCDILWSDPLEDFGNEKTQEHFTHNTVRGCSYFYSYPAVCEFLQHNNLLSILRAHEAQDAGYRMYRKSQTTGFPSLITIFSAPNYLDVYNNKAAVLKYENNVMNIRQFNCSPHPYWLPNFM

CC[C@H](C)[C@H](NC(=O)[C@@H](NC(=O)c1cccc(Cl)c1Cl)C(C)(C)C)C(=O)N[C@H](C(=O)N[C@H](C(=O)N[C@H](C(=O)N[C@@H](CCC(N)=O)C(=O)N[C@@H](Cc1c[nH]cn1)C(=O)N[C@H](CC(C)C)C(=O)N[C@@H](CO)C(=O)NCCOCCOCC(=O)N[C@@H](CCCCNC(=O)CC[C@@H]1NC(=O)[C@@H](CCCNC(=N)N)NC(=O)[C@H](CCCNC(=N)N)NC(=O)[C@@H](CCCNC(=N)N)NC(=O)[C@H](CCCNC(=N)N)NC(=O)[C@H](Cc2ccc3ccccc3c2)NC(=O)[C@@H](Cc2ccccc2)NC1=O)C(N)=O)[C@@H](C)O)[C@@H](C)CC)C(C)(C)C [CNI95] (I: {Benzoyl(2,3-Cl2)}-[Tle]I[Tle]ITQH[dL]S[AEEA]K-NH2 / II: cyclo([2Nal]R[dR]R[dR]E[dF]); amide I:11-II:6 (inferred); ring closure inferred)
higher potency than CNI93 in FA-based competition assay [1]: ~5 fold
metabolised at 24 h, 5 μM [2]: ~12%
concentrations decreasing cell viability [3]: ≥ 25 µM
concentrations decreasing cell viability [4]: ≥ 25 µM
attenuation of NFAT activity in Jurkat cells relative to CNI93 [5]: vastly superior
